Experiments:
Experiment in all cases: relative viability (nuclei count vs DMSO), 5 days (fraction); higher = more cells survive
[1] = compound: CN(C/C=C/C1=CC=C(C=C1)Cl)CC2=CC=CC=C2N(CCO)S(=O)(=O)C3=CC=C(C=C3)OC [KN-93]
Summary of the method: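 Lung cancer cell lines in 1536-well plates were kept overnight at 37 °C, then pinned with five library-drug doses (not always all listed) spaced by √10 on vehicle-anchored plates. After 5 days without medium change, cells were fixed, permeabilised and Hoechst-stained in one step, imaged at 4×, and nuclei were counted with MetaXpress. Viability is treated-well nuclei divided by vehicle-well nuclei, taken as the median over plates. Plates passed only with control CV below 25% and at least one doubling.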

[2] = compound: CN(C/C=C/C1=CC=C(C=C1)Cl)CC2=CC=CC=C2N(CCO)S(=O)(=O)C3=CC=C(C=C3)OC [KN-93] + CC(C)C[C@H](NC(=O)[C@H](Cc1ccccc1)NC(=O)c1cnccn1)B(O)O [Bortezomib] (partner 0.002 µM)
Summary of the method: (§1)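 Five library-drug doses in √10 steps were combined with a fixed anchor-drug dose, or a single drug was given alone, by pin tool to lung cancer cell lines in 1536-well plates the day after seeding. Nuclei were stained and counted after 5 days. Relative viability is the nuclei count in treated wells over that in vehicle wells, taken as the median of duplicate plates.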

[3] = compound: CN(C/C=C/C1=CC=C(C=C1)Cl)CC2=CC=CC=C2N(CCO)S(=O)(=O)C3=CC=C(C=C3)OC [KN-93] + CS(=O)(=O)N1CCN(Cc2cc3nc(-c4cccc5[nH]ncc45)nc(N4CCOCC4)c3s2)CC1 [Pictilisib] (partner 1 µM)
Summary of the method: as §1

[4] = compound: CN(C/C=C/C1=CC=C(C=C1)Cl)CC2=CC=CC=C2N(CCO)S(=O)(=O)C3=CC=C(C=C3)OC [KN-93] + CC1(C)CCC(c2ccc(Cl)cc2)=C(CN2CCN(c3ccc(C(=O)NS(=O)(=O)c4ccc(N[C@H](CCN5CCOCC5)CSc5ccccc5)c(S(=O)(=O)C(F)(F)F)c4)cc3)CC2)C1 [Navitoclax] (partner 0.5 µM)
Summary of the method: as §1

[5] = compound: CN(C/C=C/C1=CC=C(C=C1)Cl)CC2=CC=CC=C2N(CCO)S(=O)(=O)C3=CC=C(C=C3)OC [KN-93] + COc1cc2c(Oc3ccc(NC(=O)C4(C(=O)Nc5ccc(F)cc5)CC4)cc3F)ccnc2cc1OCCCN1CCOCC1 [Foretinib] (partner 0.25 µM)
Summary of the method: as §1

[6] = compound: CN(C/C=C/C1=CC=C(C=C1)Cl)CC2=CC=CC=C2N(CCO)S(=O)(=O)C3=CC=C(C=C3)OC [KN-93] + O=C(c1cc(Cc2n[nH]c(=O)c3ccccc23)ccc1F)N1CCN(C(=O)C2CC2)CC1 [Olaparib] (partner 8 µM)
Summary of the method: as §1

[7] = compound: CN(C/C=C/C1=CC=C(C=C1)Cl)CC2=CC=CC=C2N(CCO)S(=O)(=O)C3=CC=C(C=C3)OC [KN-93] + CS(=O)(=O)CCNCc1ccc(-c2ccc3ncnc(Nc4ccc(OCc5cccc(F)c5)c(Cl)c4)c3c2)o1 [Lapatinib] (partner 2 µM)
Summary of the method: as §1

[8] = compound: CN(C/C=C/C1=CC=C(C=C1)Cl)CC2=CC=CC=C2N(CCO)S(=O)(=O)C3=CC=C(C=C3)OC [KN-93] + C[C@@H](Oc1cc(-c2cnn(C3CCNCC3)c2)cnc1N)c1c(Cl)ccc(F)c1Cl [Crizotinib] (partner 1 µM)
Summary of the method: as §1

[9] = compound: CN(C/C=C/C1=CC=C(C=C1)Cl)CC2=CC=CC=C2N(CCO)S(=O)(=O)C3=CC=C(C=C3)OC [KN-93] + C[C@]1(O)C[C@@H](c2nc(-c3ccc4ccc(-c5ccccc5)nc4c3)c3c(N)nccn32)C1 [Linsitinib] (partner 1 µM)
Summary of the method: as §1

[10] = compound: CN(C/C=C/C1=CC=C(C=C1)Cl)CC2=CC=CC=C2N(CCO)S(=O)(=O)C3=CC=C(C=C3)OC [KN-93] + Cc1nc(NC(=O)N2CCC[C@H]2C(N)=O)sc1-c1ccnc(C(C)(C)C(F)(F)F)c1 [Alpelisib] (partner 2 µM)
Summary of the method: as §1

Calu-6 was tested. Which relative viability ([1]; 0.08 µM) did it give?
Its relative viability is 0.872.

What about the relative viability ([1]; 0.253 µM) of the same cell line?
The relative viability was 1.09.

What about the relative viability ([1]; 2.53 µM) of the same cell line?
The relative viability was 1.16.

And the relative viability ([1]; 8 µM)?
Its relative viability is 0.69.

And the relative viability ([2]; first compound 0.08 µM)?
The relative viability was 1.1.

What about the relative viability ([2]; first compound 0.253 µM) of the same cell line?
The relative viability was 1.05.

What about the relative viability ([2]; first compound 2.53 µM) of the same cell line?
Its relative viability is 1.13.

And the relative viability ([2]; first compound 8 µM)?
The relative viability was 0.633.

What about the relative viability ([3]; first compound 0.253 µM) of the same cell line?
Its relative viability is 1.06.

And the relative viability ([3]; first compound 2.53 µM)?
The relative viability was 1.09.

What about the relative viability ([3]; first compound 8 µM) of the same cell line?
Its relative viability is 0.454.

What about the relative viability ([4]; first compound 0.08 µM) of the same cell line?
Its relative viability is 0.805.

And the relative viability ([4]; first compound 0.253 µM)?
The relative viability was 0.894.

What about the relative viability ([4]; first compound 2.53 µM) of the same cell line?
The relative viability was 0.951.

What about the relative viability ([4]; first compound 8 µM) of the same cell line?
Its relative viability is 0.36.

What about the relative viability ([5]; first compound 0.08 µM) of the same cell line?
The relative viability was 0.861.

And the relative viability ([5]; first compound 0.253 µM)?
Its relative viability is 0.997.

What about the relative viability ([5]; first compound 2.53 µM) of the same cell line?
The relative viability was 0.882.

And the relative viability ([5]; first compound 8 µM)?
The relative viability was 0.622.

And the relative viability ([6]; first compound 0.08 µM)?
Its relative viability is 0.503.

And the relative viability ([6]; first compound 0.253 µM)?
Its relative viability is 0.546.

And the relative viability ([6]; first compound 2.53 µM)?
Its relative viability is 0.699.

And the relative viability ([6]; first compound 8 µM)?
The relative viability was 0.429.

What about the relative viability ([7]; first compound 0.08 µM) of the same cell line?
Its relative viability is 0.932.

What about the relative viability ([7]; first compound 0.253 µM) of the same cell line?
The relative viability was 1.25.

And the relative viability ([7]; first compound 2.53 µM)?
Its relative viability is 1.37.

And the relative viability ([7]; first compound 8 µM)?
The relative viability was 0.567.

What about the relative viability ([8]; first compound 0.08 µM) of the same cell line?
The relative viability was 0.638.

What about the relative viability ([8]; first compound 0.253 µM) of the same cell line?
The relative viability was 1.09.

What about the relative viability ([8]; first compound 2.53 µM) of the same cell line?
The relative viability was 0.786.

And the relative viability ([8]; first compound 8 µM)?
Its relative viability is 0.41.

And the relative viability ([9]; first compound 0.08 µM)?
Its relative viability is 0.784.

What about the relative viability ([9]; first compound 0.253 µM) of the same cell line?
Its relative viability is 1.

What about the relative viability ([9]; first compound 2.53 µM) of the same cell line?
Its relative viability is 1.16.

What about the relative viability ([9]; first compound 8 µM) of the same cell line?
The relative viability was 0.904.

And the relative viability ([10]; first compound 0.08 µM)?
The relative viability was 1.09.

And the relative viability ([10]; first compound 0.253 µM)?
Its relative viability is 1.12.

What about the relative viability ([10]; first compound 2.53 µM) of the same cell line?
Its relative viability is 0.981.

And the relative viability ([10]; first compound 8 µM)?
The relative viability was 0.644.

— the supplement of paper PMC10307832
